Each compound was assayed on greenhouse red spider mite (Tetranychus urticae) (assay: Tetranychus urticae spray test, OP-resistant (TETRUR), bean leaf disks). Details: Tetranychus urticae, foliar, 144 h, application rate 100 g/ha, after 6 days; read-out: efficacy (spider mites killed).
Type: in vivo
Experimental: After 6 days, the effect in % is determined.
In the case of `Cc1cc(F)c(/N=C(\N)C2(Cl)CC2)cc1SCC(F)(F)F` [Ia-58], the pest or weed control at 100 g/ha is reported as 100%.

Same assay, conditions: Tetranychus urticae, foliar, 144 h, application rate 500 g/ha, after 6 days; read-out: efficacy (spider mites killed)
`Cc1cc(Cl)c(/N=C(\N)C(F)(F)C(F)(F)Cl)cc1SCC(F)(F)F` [Ia-30] gave a pest or weed control at 500 g/ha of 100%. In the case of `CN(C)/C(=N/c1cc(SCC(F)(F)F)c(Br)cc1Br)C(F)(F)F` [Ia-32], the pest or weed control at 500 g/ha is reported as 100%. With `CN/C(=N/c1cc(SCC(F)(F)F)c(Br)cc1Br)C(F)(F)F` [Ia-37] the pest or weed control at 500 g/ha was 100%. For `Cc1cc(F)c(/N=C(\N)c2cccnc2)cc1SCC(F)(F)F` [Ia-40], the pest or weed control at 500 g/ha was 100%. With `Cc1cc(F)c(/N=C(\N)c2ccncn2)cc1SCC(F)(F)F` [Ia-42] the pest or weed control at 500 g/ha was 100%. In the case of `CN/C(=N/c1cc(SCC(F)(F)F)c(Br)cc1F)C(F)(F)F` [Ia-43], the pest or weed control at 500 g/ha is reported as 100%. With `Cc1cc(F)c(/N=C(\N)c2ccc(Cl)nc2)cc1SCC(F)(F)F` [Ia-46] the pest or weed control at 500 g/ha was 100%. `Cc1cc(F)c(/N=C(\N)C(F)(F)C(F)(F)Cl)cc1SCC(F)(F)F` [Ia-47] showed a pest or weed control at 500 g/ha of 100%. `Cc1cc(Cl)c(/N=C(\N)C(F)F)cc1SCC(F)(F)F` [Ia-48] showed a pest or weed control at 500 g/ha of 100%. Work on `Cc1cc(Cl)c(SCC(F)(F)F)cc1/N=C(\N)c1ccccn1` [Ia-49] yielded a pest or weed control at 500 g/ha of 100%. `CCN(CC)/C(=N/c1cc(SCC(F)(F)F)c(C)cc1F)C(F)(F)F` [Ia-51] was tested, and the pest or weed control at 500 g/ha was 100%. `CN/C(=N/c1cc(SCC(F)(F)F)c(Cl)cc1F)C(F)(F)F` [Ia-52] showed a pest or weed control at 500 g/ha of 100%. For `Cc1cc(Cl)c(SCC(F)(F)F)cc1/N=C(\N(C)C)C(F)(F)F` [Ia-53], the pest or weed control at 500 g/ha was 100%. `Cc1cc(F)c(/N=C(/NC2COC2)C(F)(F)F)cc1SCC(F)(F)F` [Ia-54] showed a pest or weed control at 500 g/ha of 100%. `Cc1cc(F)c(/N=C2/CCCN2CC(F)F)cc1SCC(F)(F)F` [Ia-55] gave a pest or weed control at 500 g/ha of 100%. `Cc1cc(Cl)c(/N=C(\N)C(F)(F)F)cc1SCC(F)(F)F` [Ia-56] was tested, and the pest or weed control at 500 g/ha was 100%. For `CN(C)/C(=N\c1cc(SCC(F)(F)F)c(Cl)cc1Cl)C(F)(F)F` [Ia-57], the pest or weed control at 500 g/ha was 100%. `Cc1cc(F)c(/N=C(/c2cccnc2)N(C)C)cc1SCC(F)(F)F` [Ia-59] gave a pest or weed control at 500 g/ha of 90%. Work on `CN/C(=N\c1cc(SCC(F)(F)F)c(C)cc1F)c1ccc(Cl)cc1` [Ia-60] yielded a pest or weed control at 500 g/ha of 100%. `CN/C(=N\c1cc(SCC(F)(F)F)c(C)cc1F)c1cccnc1` [Ia-61, N′-{2-Fluoro-4-methyl-5-[(2,2,2-trifluoroethyl)sulfanyl]phenyl}-N-methylpyridine-3-carboximidamide] gave a pest or weed control at 500 g/ha of 100%. In the case of `CN1CCCC/C1=N\c1cc(SCC(F)(F)F)c(Cl)cc1Cl` [Ia-62], the pest or weed control at 500 g/ha is reported as 90%. Work on `Cc1cc(F)c(/N=C(\N)c2ccccn2)cc1SCC(F)(F)F` [Ia-63] yielded a pest or weed control at 500 g/ha of 90%. `CN/C(=N\c1cc(SCC(F)(F)F)c(C)cc1Cl)c1cccnc1` [Ia-64] showed a pest or weed control at 500 g/ha of 100%. With `Cc1cc(C)c(SCC(F)(F)F)cc1/N=C(\N)C(F)(F)C(F)(F)Cl` [Ia-65] the pest or weed control at 500 g/ha was 100%. `Cc1cc(F)c(/N=C(\N)C2CC2(F)Cl)cc1SCC(F)(F)F` (stereo not shown) [Ia-67] was tested, and the pest or weed control at 500 g/ha was 100%. Work on `CN1CCC/C1=N\c1cc(SCC(F)(F)F)c(Cl)cc1Cl` [Ia-68] yielded a pest or weed control at 500 g/ha of 90%. With `CN/C(=N\c1cc(SCC(F)(F)F)c(C)cc1F)c1ccccc1Cl` [Ia-69] the pest or weed control at 500 g/ha was 100%. `Cc1cc(Cl)c(SCC(F)(F)F)cc1/N=C(\N)C(F)(F)C(F)(F)F` [Ia-70] was tested, and the pest or weed control at 500 g/ha was 100%.

Same assay, conditions: application rate 500 g/ha, after 6 days
`Cc1cc(F)c(N=C(N)C(F)(F)C(F)(F)C(F)(F)C(F)(F)C(F)(F)C(F)(F)C(F)(F)F)cc1SCC(F)(F)F` [Ia-06] was tested, and the “efficacy (spider mites killed)” value was 100%. For `Cc1cc(F)c(N=C(N(Cc2ccccn2)Cc2ccccn2)C(F)(F)F)cc1SCC(F)(F)F` [Ia-08], the “efficacy (spider mites killed)” value was 100%. In the case of `Cc1cc(F)c(N=C(NS(=O)(=O)C(F)(F)F)C(F)(F)F)cc1SCC(F)(F)F` [Ia-16], the “efficacy (spider mites killed)” value is reported as 100%. For `CNC(=Nc1cc(SCC(F)(F)F)c(C)cc1Cl)C(F)(F)F` [Ia-20], the “efficacy (spider mites killed)” value was 100%. `Cc1ccc(N=C(N)C(F)(F)F)cc1SCC(F)(F)F` [Ia-25] was tested, and the “efficacy (spider mites killed)” value was 100%.

Source: patent US10051861B2, “N-arylamidine-substituted trifluoroethyl sulfide derivatives as acaricides and insecticides” (BAYER CROPSCIENCE AG, priority 2011, dated 2018)
